Experimental data from patent US12031137B2, “Compositions comprising SASP modulators and senescence attenuators and uses thereof for modulating cellular senescence” (RSEM, LIMITED PARTNERSHIP, priority 2016, dated 2024).

Tests used:
[1] = system: mouse model of oxygen-induced retinopathy (OIR); assay: TUNEL staining of OIR retinas; type: in vivo; conditions: P14 OIR, intravitreal, vs vehicle-treated retinas
Source text: (§1) O2-induced retinopathy. Mouse pups from different strains (C57Bl/6 WT, LyzM-Cre, LysM-Cre/IRE1^fl/fl, LysM-Cre/IRE1^+/+, IRE1^fl/fl and LysM-Cre/ROSA26EYFP^fl/fl), and their fostering mothers (CD1, Charles River) were exposed to 75% 02 from postnatal day 7 (P7) to day 12 and returned to room air. This model serves as a proxy to human ocular neovascular diseases such as ROP and diabetic retinopathy characterized by a late phase of destructive pathological angiogenesis (72, 73). Upon return to room air, hypoxia-driven neovascularization (NV) develops from P14 onwards (27). We enucleated eyes at different time points and dissected the retinas for mRNA, protein assays or flatmounting.
(§2) Intravitreal injections. P2, P10 or P12 C57BL/6 pups were anesthetized with 3.0% isoflurane and injected in the vitreous chamber with 0.5 μL of lentivirus (see “Lentivirus production”), recombinant SEMA3A (100 ng/μL), metformin (10 μg/μL) or Aflibercept (10 μg/uL) using a 10-μL Hamilton syringe fitted with a […] glass capillary tip. Approximately 254±11.0 ng/μL of lentivirus Sh_GFP and 323.3±15.3 ng/μL containing Sh_Sema3a, Lv.Cre (15.0 ng/mL), Lv.GFP (15.0 ng/mL) was injected. Virus titers were assessed with the p24 ELISA kit (ZeptoMetrix). The titers of the lentiviruses used were (in ng p24) LV.Sh_RNA IRE1α (8.52 ng/mL), and LV.Sh_RNA.GFP (8.47 ng/mL).

[2] = system: mouse model of oxygen-induced retinopathy (OIR); assay: SA-β-gal staining of retinas in oxygen-induced retinopathy (OIR) after intravitreal injection; type: in vivo; conditions: single intravitreal injection at P12, vs vehicle
Source text: as §1
(§3) Senescence-associated β-galactosidase (SA-β-gal) assay. Senescence-associated β-galactosidase assays were carried out as described previously (57, 75)
Quantification of SA-β-gal in vivo. Senescence-associated β-galactosidase staining in flatmount retinas or sagittal eye sections were analyzed using Image J software as described in FIG. 14.
as §2

[3] = system: mouse model of oxygen-induced retinopathy (OIR); assay: Avascular area and pre-retinal neovascularization in OIR flatmount retinas; type: in vivo
[4] = Mouse weight gain on systemic administration of metformin; type: in vivo
[5] = system: mouse model of oxygen-induced retinopathy (OIR); assay: Immunoblot and RT-qPCR of OIR retinas after intravitreal injection; type: in vivo
Source text: as §1
(§4) Semi-quantitative and Real-time PCR analysis. We isolated RNA using the GenElute™ Mammalian Total RNA Miniprep Kit (Sigma) and performed a digestion with DNase I to prevent amplification of genomic DNA. We reversed transcribed the RNA using M-MLV reverse transcriptase and analyzed gene expression using SybrGreen™ in an ABI Biosystems Real-Time PCR machine. β-actin was used as a reference gene. […] We investigated the splicing of XBP-1 by incubating the XBP-1 semi-quantitative PCR product with 0.4 U/μL of PstI enzyme for 5 hrs at 37° C. followed by separation on 2.5% agarose gel.
as §2
(§5) Western blotting. We enucleated eyes at varying time points and rapidly dissected and homogenized retinas for assessment of retinal protein levels. Protein concentration from retinal homogenate and cell lysates were assessed by BCA assay (Sigma), and then 30 μg of protein analyzed for each condition by standard SDS-PAGE technique.

[6] = system: J774 macrophage/monocyte cells; assay: SEMA3A exposure of J774 macrophage/monocyte cells (SA-β-gal, immunoblot, RT-qPCR, γH2AX); type: cell-based, mouse
Protocol: as §4
For Protein localization, flatmounted retinas were incubated with different antibodies as indicated. For in vitro IF, cultured cells were plated on 0.1% gelatin-coated coverslips and serum-starved overnight and stimulated for 7 days with SEMA3A (100 ng/ml). Cells were washed briefly with cold PBS and fixed for 20 minutes in PBS containing 3.5% paraformaldehyde. Cells were rinsed with PBS and permeabilized with 0.3% Triton in PBS for 5 minutes. Fixed cells were blocked with 1% BSA and then incubated for 1 hour with primary antibodies in 0.1% BSA in PBS. Bound primary antibodies were visualized after 1 hour of incubation using Alexa Fluor secondary antibody. Coverslips were mounted using Fluoromount (Sigma-Aldrich) and analyzed by confocal microscope (Olympus confocal FV1000). Samples were viewed with a ×63/1.4 NA oil or ×30 objective. Images were assembled using Photoshop CS4 (Adobe Systems). For all antibodies used for immunohistochemistry, see Table 8.
as §3
(§6) Preparation of conditioned media (CM). Human retinal microvascular endothelial cells (HRMECs), retinal neuron 661W photoreceptor cells and Mouse macrophages (J774A.1 cell line) were incubated for 7 days with recombinant SEMA3A (100 ng/μL), H2O2 (150 μM for 2 h) 48 h after transfection or not as indicated in each experiment. Supernatants were centrifuged and filtered and then frozen for subsequent use. For Western Blot on CM was concentrated using ultra centrifugal amicon filter unit from Millipore.
as §5

[7] = system: retinal neurons (661W); assay: SEMA3A exposure of 661W retinal neuron cell line (SA-β-gal); type: cell-based; conditions: 100 ng/ml, 7 days
Protocol: as §3
as §6, with “([…]),” for “(J774A.1 cell line) were incubated for 7 days with recombinant SEMA3A (100 ng/μL),”

[8] = system: Human retinal microvascular endothelial cells (HRMECs); assay: SEMA3A exposure of HRMECs (cell cycle FACS, ECIS, SA-β-gal); type: cell-based
Protocol: Flow Cytometry Analysis. Human retinal microvascular endothelial cells (HRMEC) cell cycle analysis (P1 biolegend) were performed according to the manufacturer's instructions and as previously reported (43). Briefly, HRMEC (1×10^6) were seeded in 6-well plates and incubated for 7 days with SEMA3A, 100 and 500 ng/ml. The samples were analyzed by flow cytometry. FACS was performed on a LSRII (BD Biosciences) device and data were analysed using FlowJo software (version 7.6.5).
Electric Cell-substrate Impedance Sensing (ECIS) Proliferation assay. Real-time analysis of trans-endothelial electric resistance was performed by plating 5000 HRMECs/ml were seeded onto 8W10E+ standard 8-well arrays (Applied BioPhysics, NY). Cells were allowed to grow leading to a capacitance of less than 10 nF. Cells were starved for 5 Hours with endothelial basal media (EBM-2, Lonza) and then treated with 100 ng/ml SEMA3A or vehicle (EBM-2) for 120 h and impedance was measured using an ECIS Zθ impedance instrument (Applied BioPhysics, NY). Measurements were taken for 120 h post treatment.
as §3, §6

[9] = system: retina; assay: Intravitreal injection of recombinant SEMA3A in mouse pups, senescence markers; type: in vivo; conditions: retina harvested at P5
Source text: FIG. 3A: Western blot analysis of SEMA3A protein expression level during OIR compared to normoxic controls at P10, P14, P17 and P21. β-actin is used as a loading control. FIG. 3B: Immunoblot analysis of SEMA3A protein levels during Ras-induced senescence in Mouse Embryonic Fibroblasts (MEFs). Cell lysates from MEFs retrovirally transduced with H-RasV12 oncogene or control empty vector harvested 14 days post-selection. FIG. 3C: SEMA3A transcript levels in human normal diploid fibroblasts (IMR90) retrovirally transduced with empty vector, MEK1 alone or MEK and human papillomavirus oncoproteins E6 and E7. […] FIG. 3I: HRMEC, retinal neurons (661W) and J774 (macrophages-like cells) stimulated with recombinant SEMA3A (100 ng/ml) or vehicle (CT) for 7 days, stained for SA-β-gal and quantification in FIG. 3J. […] Senescent cells were stained with SA-β-gal (right) and the level of secreted SEMA3A (S3A) protein in CM was evaluated by immunoblot (left). […] Senescence was evaluated after 7 days of treatment. FIG. 3M: Quantification of percentage of SA-β-gal positive cells treated as in (J). […]
Intravitreal injections. […] Virus titers were assessed with the p24 ELISA kit (ZeptoMetrix). […]
Western blotting. […] Protein concentration from retinal homogenate and cell lysates were assessed by BCA assay (Sigma), and then 30 μg of protein analyzed for each condition by standard SDS-PAGE technique.

[10] = intravitreal injection at P12, P14 OIR retinas
[11] = HRMECs, 7 days, 100 and 500 ng/ml, FACS

CN(C)C(=N)NC(=N)N [metformin, N,N-Dimethylimidodicarbonimidic diamide]
apoptosis in cells of the GCL (TUNEL) [1]: without aggravating apoptosis | number of apoptotic cells in the INL layer (TUNEL) [1]: lowered | SA-β-gal staining at P14 OIR [2]: significant decrease | SA-β-gal staining at P17 OIR (cellular senescence) [2]: significant decrease | benefits on pathological retinal angiogenesis ([3]; administered via systemic paths): did not show any benefits | enhancement of vascular regeneration ([3]; intravitreal injection at P12, assessed at P17 OIR): more than 2 fold | pathological neovascularization at P17 OIR ([3]; intravitreal injection at P12, vs vehicle): by half | mouse weight gain [4]: interfered with mouse weight gain | Components of the VEGF signaling pathway (Vegf-a, Vegf-c, Vegfr-1, Vegfr-2 RT-qPCR) [5, 10]: not affected | IL6, Cdkn1a, Cdkn2a and Sema3A by RT-qPCR [5, 10]: significant decrease | NF-κB and IRE1α activation in retinas (immunoblot) ([5]; single intravitreal injection at P12, OIR P14 and P17): attenuated

B1: SEMA3A: Recombinant human Semaphorin 3A (from murine myeloma cell line, NS0) (R&D Systems) (protein)
chain: YQNGKNNVPRLKLSYKEMLESNNVITFNGLANSSSYHTFLLDEERSRLYVGAKDHIFSFDLVNIKDFQKIVWPVSYTRRDECKWAGKDILKECANFIKVLKAYNQTHLYACGTGAFHPICTYIEIGHHPEDNIFKLENSHFENGRGKSPYDPKLLTASLLIDGELYSGTAADFMGRDFAIFRTLGHHHPIRTEQHDSRWLNDPKFISAHLISESDNPEDDKVYFFFRENAIDGEHSGKATHARIGQICKNDFGGHRSLVNKWTTFLKARLICSVPGPNGIDTHFDELQDVFLMNFKDPKNPVVYGVFTTSSNIFKGSAVCMYSMSDVRRVFLGPYAHRDGPNYQWVPYQGRVPYPRPGTCPSKTFGGFDSTKDLPDDVITFARSHPAMYNPVFPMNNRPIVIKTDVNYQFTQIVVDRVDAEDGQYDVMFIGTDVGTVLKVVSIPKETWYDLEEVLLEEMTVFREPTAISAMELSTKQQQLYIGSTAGVAQLPLHRCDIYGKACAECCLARDPYCAWDGSACSRYFPTAKRRTRRQDIRNGDPLTHCSDLHHDNHHGHSPEERIIYGVENSSTFLECSPKSQRALVYWQFQRRNEERKEEIRVDDHIIRTDQGLLLRSLQQKDSGNYLCHAVEHGFIQTLLKVTLEVIDTEHLEELLHKDDDGDGSKTKEMSNSMTPSQKVWYRDFMQLINHPNLNTMDEFCEQVWKRDRKQRRQRPGHTPGNSNKWKHLQENKKGRNRRTHEFERAPRSV
modifications: left off: a dimerising Fc or GST
senescence (SA-β-gal) in macrophage-like J774 cells ([6]; 100 ng/ml, 7 days): induces senescence | expression of Pai1, Il6, Il1β, TGF-β and Tp53 (RT-qPCR) ([6]; J774, 100 ng/mL, 7 days): drove expression | senescence-associated DNA-damage foci expressing γH2AX ([6]; J774, 100 ng/mL, 7 days): promoted | IRE1α activation (p-IRE1α S724 immunoblot) ([6]; J774, sustained exposure, 100 ng/mL, 3 or 7 days): activated | senescence (SA-β-gal) in 661W retinal neuron cell line [7]: induces senescence | senescence (SA-β-gal) in HRMECs ([8]; 100 ng/ml, 7 days): induces senescence | normal endothelial cell growth (ECIS) ([8]; HRMECs, 100 ng/ml): stunted | S phase [8, 11]: significantly reducing | cell cycle arrest in G0/G1 [8, 11]: increased | SA-β-gal staining of retina sagittal cryosections [9]: marked augmentation | p53, p16INK4a and IRE1α in retina (immunoblot) [9]: marked increase
